Bounds are passed on as bounds.

For the first assay, the target named is T1, HDAC6 (Homo sapiens, UniProt Q9UBN7).
T1 sequence (Q9UBN7 1-1215): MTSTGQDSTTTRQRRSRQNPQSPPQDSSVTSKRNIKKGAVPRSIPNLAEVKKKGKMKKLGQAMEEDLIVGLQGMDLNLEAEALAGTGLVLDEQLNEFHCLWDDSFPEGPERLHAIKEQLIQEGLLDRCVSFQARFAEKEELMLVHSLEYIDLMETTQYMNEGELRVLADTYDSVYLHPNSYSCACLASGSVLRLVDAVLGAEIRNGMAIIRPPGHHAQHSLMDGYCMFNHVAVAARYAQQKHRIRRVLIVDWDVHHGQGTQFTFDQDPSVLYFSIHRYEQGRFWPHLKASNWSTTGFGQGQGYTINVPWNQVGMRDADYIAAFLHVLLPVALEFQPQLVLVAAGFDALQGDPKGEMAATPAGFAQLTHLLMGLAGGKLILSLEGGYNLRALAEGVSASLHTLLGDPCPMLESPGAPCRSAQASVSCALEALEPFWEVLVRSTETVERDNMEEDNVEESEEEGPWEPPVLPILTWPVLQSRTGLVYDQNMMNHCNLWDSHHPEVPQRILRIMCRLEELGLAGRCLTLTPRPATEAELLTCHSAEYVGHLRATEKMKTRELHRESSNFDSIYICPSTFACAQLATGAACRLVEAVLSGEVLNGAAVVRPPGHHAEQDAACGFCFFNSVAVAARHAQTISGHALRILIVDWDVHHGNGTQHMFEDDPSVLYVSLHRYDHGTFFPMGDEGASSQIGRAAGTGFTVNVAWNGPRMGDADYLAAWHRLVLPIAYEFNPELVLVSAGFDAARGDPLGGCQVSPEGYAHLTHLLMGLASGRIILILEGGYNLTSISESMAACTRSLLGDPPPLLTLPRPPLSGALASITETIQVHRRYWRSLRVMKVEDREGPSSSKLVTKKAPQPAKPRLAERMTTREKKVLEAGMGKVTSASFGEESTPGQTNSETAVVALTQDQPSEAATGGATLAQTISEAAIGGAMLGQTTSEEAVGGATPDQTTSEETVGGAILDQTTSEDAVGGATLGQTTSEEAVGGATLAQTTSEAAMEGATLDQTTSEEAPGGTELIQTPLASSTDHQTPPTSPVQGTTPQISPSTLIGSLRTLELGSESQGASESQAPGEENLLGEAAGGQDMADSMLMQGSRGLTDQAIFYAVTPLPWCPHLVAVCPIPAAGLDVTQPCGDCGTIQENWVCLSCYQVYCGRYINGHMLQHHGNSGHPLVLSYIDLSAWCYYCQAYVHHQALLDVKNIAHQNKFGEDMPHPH
Nature of the assay: Human HDAC enzyme inhibitor Fluor-de-Lys assay, HDAC6. Format: biochemical. Conditions: HDAC6, Fluor-de-Lys assay. The procedure:
(§1) Human HDAC Enzyme Inhibitor Fluor-De-Lys Assay
(§2) Recombinant human HDAC8 (BML-SE145-0100) and HDAC10 (BML-SE559-0050) enzymes, HDAC substrates BML-KI104 and BML-KI178, and HDAC developer solutions BML-KI105 and BML-KI176 were purchased from Enzo Life Sciences. […] HDAC inhibitor suberoylanilide hydroxamic acid (SAHA) was obtained from Indofine and trichostatin A (TSA) was obtained from Sigma-Aldrich.
(§3) The histone deacetylase activities of HDAC1, HDAC2, HDAC3, HDAC6, and HDAC8 were measured in modified FLUOR DE LYS assays in 384-well format. In this assay, HDAC enzymes are initially incubated with an ε-acetyl (or -trifluoroacetyl)-L-lysine-containing substrate with a C-terminal amide having aminomethylcoumarin as the amine component. HDACs cleave the ε-acetyl group, rendering the resulting product susceptible to AMC cleavage by trypsin. The released AMC is then detected by its fluorescence.
(§4) The HDAC3/SMRT assay employed buffer B, consisting of 20 mM HEPES, pH 8.0, 1 mM MgCl2, 50 mM NaCl, 2.7 mM KCl, 0.05% BSA, 0.005% Tween 20, and 10 μM IP4. […] The HDAC8 assay employed buffer D, consisting of 20 mM HEPES, pH 8.0, 1 mM MgCl2, 100 mM NaCl, 20 mM KCl, 0.10% n-octyl-β-D-glucoside (Anatrace) and 0.05% BSA. All steps were performed at room temperature (23° C.). The assay was performed by pre-incubating serial dilutions of test compounds with the target HDAC prior to initiation with substrate. Each compound was titrated in a 10-point dose response, using a 1:3 fold dilution scheme, with 0.15 ul of solution added by ECH0555 to the plate, followed by the addition of 20 μl of the appropriate HDAC isoform diluted in appropriate assay buffer. […] Final conditions used for each assay were: 1. HDAC 1, 0.3 nM total enzyme, 20 μM substrate BML-KI104; 2. […] HDAC 3/SMRT, 0.3 nM total enzyme, 20 μM substrate BML-KI104; 4. […] The reactions were stopped and developed by addition of 30 ul of HDAC developer solution containing a saturating level of HDAC inhibitor as follows: 1.
On to `CCC(=O)CCCCC[C@H](NC(=O)[C@@H]1CC12CCN(C(N)=O)CC2)c1ncc(-c2cc3ccccc3nc2OC)[nH]1` (single isomer, unassigned) [Compound 318], for which half-maximal inhibition (IC50) required 0.551 µM.
On to `CCC(=O)CCCCC[C@H](NC(=O)C1CC2(CCN(C)CC2)C1)c1ncc(-c2cc3ccccc3nc2OC)[nH]1` [Compound 277], for which the midpoint of inhibition, the IC50, lay at 0.405 µM.
Regarding `CCC(=O)CCCCC[C@H](NC(=O)[C@@H]1C[C@@]12CCN(C)C2)c1ncc(-c2cc3ccccc3nc2OC)[nH]1` [Compound 330], half-maximal inhibition (IC50) required 0.632 µM.
On to `CCC(=O)CCCCC[C@H](NC(=O)[C@@H]1CC12CCN(CC)CC2)c1ncc(-c2cc3ccccc3[nH]c2=O)[nH]1` [Compound 292], for which the IC50 (usually the concentration at which inhibition is half-maximal) is greater than 1.5 µM.
Regarding `CCC(=O)CCCCC[C@H](NC(=O)[C@H]1CC12CCN(CC1CC1)CC2)c1ncc(-c2cc3ccccc3nc2OC)[nH]1` [Compound 336], the IC50 is 0.189 µM.
On the same count and under the same terms, for `CCC(=O)CCCCC[C@H](NC(=O)C1CC2(C1)CN(CC)C2)c1ncc(-c2cc3ccccc3nc2OC)[nH]1` [Compound 279] the value was 0.362 µM; for `CCC(=O)CCCCC[C@H](NC(=O)C1CCC2(CC1)CN(CC)C2)c1ncc(-c2cc3ccccc3nc2OC)[nH]1` [Compound 271], 0.464 µM.

In another assay the target is T2, Recombinant human HDAC8 (Homo sapiens, UniProt Q9BY41).
T2 construct: purchased Enzo Life Sciences BML-SE145-0100
T2 sequence (Q9BY41 1-377): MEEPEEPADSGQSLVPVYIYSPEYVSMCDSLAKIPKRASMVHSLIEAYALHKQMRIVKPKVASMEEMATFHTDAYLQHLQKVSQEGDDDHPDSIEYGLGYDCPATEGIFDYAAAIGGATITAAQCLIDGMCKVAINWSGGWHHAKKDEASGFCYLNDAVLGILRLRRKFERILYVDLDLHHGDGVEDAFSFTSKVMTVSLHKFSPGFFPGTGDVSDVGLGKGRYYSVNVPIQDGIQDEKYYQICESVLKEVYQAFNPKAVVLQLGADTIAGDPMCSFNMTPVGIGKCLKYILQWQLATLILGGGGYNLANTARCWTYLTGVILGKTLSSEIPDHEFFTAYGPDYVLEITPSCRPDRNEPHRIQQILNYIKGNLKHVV
As to the kind of experiment: Human HDAC enzyme inhibitor Fluor-de-Lys assay, HDAC8. The assay is classed as biochemical. As to conditions: recombinant human HDAC8, Fluor-de-Lys assay. The procedure:
as §1, §2, §3, §4
With `CCC(=O)CCCCC[C@H](NC(=O)[C@@H]1CC12CCN(C(N)=O)CC2)c1ncc(-c2cc3ccccc3nc2OC)[nH]1` (single isomer, unassigned) [Compound 318], the concentration for half-maximal inhibition (IC50) is 1.2 µM.
In the case of `CCC(=O)CCCCC[C@H](NC(=O)C1CC2(CCN(C)CC2)C1)c1ncc(-c2cc3ccccc3nc2OC)[nH]1` [Compound 277], the IC50 was determined as 1.92 µM.
Regarding `CCC(=O)CCCCC[C@H](NC(=O)[C@@H]1C[C@@]12CCN(C)C2)c1ncc(-c2cc3ccccc3nc2OC)[nH]1` [Compound 330], the IC50 stood at 13.7 µM.
On the same count and under the same terms, under `CCC(=O)CCCCC[C@H](NC(=O)[C@@H]1CC12CCN(CC)CC2)c1ncc(-c2cc3ccccc3[nH]c2=O)[nH]1` [Compound 292] stands greater than 4.5 µM; under `CCC(=O)CCCCC[C@H](NC(=O)[C@H]1CC12CCN(CC1CC1)CC2)c1ncc(-c2cc3ccccc3nc2OC)[nH]1` [Compound 336], 3.13 µM; under `CCC(=O)CCCCC[C@H](NC(=O)C1CC2(C1)CN(CC)C2)c1ncc(-c2cc3ccccc3nc2OC)[nH]1` [Compound 279], 5.12 µM.
As to `CCC(=O)CCCCC[C@H](NC(=O)C1CCC2(CC1)CN(CC)C2)c1ncc(-c2cc3ccccc3nc2OC)[nH]1` [Compound 271], the IC50 turned out to be 1.75 µM.

For another assay, the system named is KARN cells (Jurkat 2C4). As to the kind of experiment: cells. Conditions: Homo sapiens, Jurkat, read-out: Karn EC50 (nM) 0.1% NHS, 0.1% normal human serum; luciferase induction, 100% = 2 μM SAHA. Format: cell-based. The method, then:
KARN cells (Jurkat 2C4) were licensed from the laboratory of Dr. John Karn, Case Western Reserve University, School of Medicine. […] An atmosphere of 5% CO2 and 90% humidity was used for all culture work.
Day 1: After the 3-4 day growth period, the cells were transferred from the T175 flask to a 50 ml conical tube and gently pelleted at 1000 rpm for 5 minutes. […] These flasks were returned to the incubator.
Day 2: Cell Preparation: The next day, the cells were transferred from each T175 flask to an individual 50 ml conical tube and gently pelleted at 1000 rpm for 5 minutes. The cells were gently resuspended in assay media (30 ml) and pelleted again. […] The cells were counted using the ViCell (Beckman Coulter) and diluted as necessary. […] The plates were covered and returned to the incubator prior to compound addition.
The reference compounds, DMSO and SAHA were then added to the compound plate. […] The final high concentration for SAHA and the test compounds in the assays was 40 μM. The final DMSO concentration in all wells was 0.4%. The minimal induction reference compound used was DMSO and the maximal induction reference compound used was SAHA (2 μM final concentration in the assay).
Day 3: The luciferase detection reagent was prepared by transferring the contents of one bottle of Steady-Glo buffer to one bottle of Steady-Glo aubstrate (Steady-Glo Luciferase Assay System, Promega, catalog number E2520), followed by gently mixing until the substrate was thoroughly dissolved and the solution was equilibrated to room temperature. […] The Steady-Glo Reagent was added to the plates (30 μl/well), which were then covered with a black lid and incubated for 10 minutes at room temperature. The plates were then read for luminescence on an Envision (Perkin Elmer) using the ultrasensitive mode (US LUM), […] and 384-well aperture. Luminescence counts in the DMSO reference wells were considered as 0% induction, while those in the 2 μM SAHA reference wells were considered as 100% induction. Dose response curves were plotted as test compound concentration (X-axis) vs. percent activation (Y-axis) using a 4-parameter fit based on the Levenberg-Marquardt algorithm.
Turning to `CCC(=O)CCCCC[C@H](NC(=O)[C@@H]1CC12CCN(C(N)=O)CC2)c1ncc(-c2cc3ccccc3nc2OC)[nH]1` (single isomer, unassigned) [Compound 318], the EC50 (commonly the midpoint of the concentration-response curve) stood at 861 nM.
With `CCC(=O)CCCCC[C@H](NC(=O)C1CC2(CCN(C)CC2)C1)c1ncc(-c2cc3ccccc3nc2OC)[nH]1` [Compound 277], the concentration for a half-maximal effect (EC50) amounted to 140 nM.
Regarding `CCC(=O)CCCCC[C@H](NC(=O)[C@@H]1C[C@@]12CCN(C)C2)c1ncc(-c2cc3ccccc3nc2OC)[nH]1` [Compound 330], the EC50 was found to be 309 nM.
Take `CCC(=O)CCCCC[C@H](NC(=O)[C@@H]1CC12CCN(CC)CC2)c1ncc(-c2cc3ccccc3[nH]c2=O)[nH]1` [Compound 292]: the EC50 came out at 992 nM.
As for `CCC(=O)CCCCC[C@H](NC(=O)[C@H]1CC12CCN(CC1CC1)CC2)c1ncc(-c2cc3ccccc3nc2OC)[nH]1` [Compound 336], the EC50 turned out to be 16 nM.
Turning to `CCC(=O)CCCCC[C@H](NC(=O)C1CC2(C1)CN(CC)C2)c1ncc(-c2cc3ccccc3nc2OC)[nH]1` [Compound 279], the EC50 came out at 160 nM.
`CCC(=O)CCCCC[C@H](NC(=O)C1CCC2(CC1)CN(CC)C2)c1ncc(-c2cc3ccccc3nc2OC)[nH]1` [Compound 271]: the EC50 is 154 nM.

Still in this assay, the particulars now being: Homo sapiens, Jurkat, read-out: Karn EC50 (nM) 5% NHS, 5% normal human serum; luciferase induction, 100% = 2 μM SAHA.
Turning to `CCC(=O)CCCCC[C@H](NC(=O)[C@@H]1CC12CCN(C(N)=O)CC2)c1ncc(-c2cc3ccccc3nc2OC)[nH]1` (single isomer, unassigned) [Compound 318], the EC50 came out at 4600 nM.
The same measure, in the same setting: for `CCC(=O)CCCCC[C@H](NC(=O)C1CC2(CCN(C)CC2)C1)c1ncc(-c2cc3ccccc3nc2OC)[nH]1` [Compound 277] the value was 708 nM.
Take `CCC(=O)CCCCC[C@H](NC(=O)[C@@H]1C[C@@]12CCN(C)C2)c1ncc(-c2cc3ccccc3nc2OC)[nH]1` [Compound 330]: the EC50 is 1150 nM.
As to `CCC(=O)CCCCC[C@H](NC(=O)[C@@H]1CC12CCN(CC)CC2)c1ncc(-c2cc3ccccc3[nH]c2=O)[nH]1` [Compound 292], the EC50 is 1380 nM.
In the case of `CCC(=O)CCCCC[C@H](NC(=O)[C@H]1CC12CCN(CC1CC1)CC2)c1ncc(-c2cc3ccccc3nc2OC)[nH]1` [Compound 336], the EC50 worked out at 30 nM.
As to `CCC(=O)CCCCC[C@H](NC(=O)C1CC2(C1)CN(CC)C2)c1ncc(-c2cc3ccccc3nc2OC)[nH]1` [Compound 279], the EC50 was determined as 860 nM.
For `CCC(=O)CCCCC[C@H](NC(=O)C1CCC2(CC1)CN(CC)C2)c1ncc(-c2cc3ccccc3nc2OC)[nH]1` [Compound 271], the EC50 was determined as 634 nM.

The values are drawn from patent US12590099B2, “Inhibitors of histone deacetylase useful for the treatment or prevention of HIV infection” (Merck Sharp & Dohme LLC, priority 2018, dated 2026).
